Laboratory results reported in US20240216412A1, “OXIDIZED NICOTINAMIDE ADENINE DINUCLEOTIDE (NAD+) PRECURSOR TREATMENT FOR HEART FAILURE ALLEVIATION INDEPENDENT OF MITOCHONDRIAL PROTEIN DEACETYLATION” (University of Washington, priority 2022, published 2024).

Experiments:
[1] = test system: Complex I, Cytochrome C Oxidase, Citrate synthase; experiment: Electron transport chain enzyme activities in heart homogenates; format: in vivo, mouse; conditions: TAC hearts, Sirt3Ko and WT heart lysate
Procedure: (§1) Enzyme Activities. Citrate synthase (CS), Complex I (CI) and Cytochrome C Oxidase (CIV), and Mrpp2 dehydrogenase activities were determined in heart tissue homogenates at 30° C. using a protocol adapted from previously published methods (Spinazzi et al., 2012). Briefly, for CS activity frozen cardiac tissue (25 mg) was homogenized at 4° C. in CelLytic™ MT Cell Lysis Reagent (C3228) and then incubated on ice for 30 minutes. The samples were then centrifuged at 10,000×g for 10 minutes at 4° C. and protein concentration determined. CS activity was analyzed in 100 mM Tris buffer containing 0.1% Triton X-100, pH 8.0 as previously described (Spinazzi et al., 2012). For CIV activity, 25 mg of cardiac tissue was homogenized at 4° C. in 50 mM potassium phosphate buffer containing 1 mM EDTA, and 0.1% Triton X-100 (pH 7.4; final concentration, 5 mg tissue/mL). The samples were incubated on ice for 30 minutes followed by centrifugation at 10,000×g for 10 minutes at 4° C. CIV activity was analyzed in 100 mM potassium phosphate buffer as previously described (Spinazzi et al., 2012). For Cl activity, 25 mg of cardiac tissue was homogenized at 4° C. in 50 mM potassium phosphate buffer containing 1 mM EDTA, and 0.1% Triton X-100 (pH 7.4; final concentration, 5 mg tissue/mL). The samples were incubated on ice for 30 minutes followed by centrifugation at 10,000×g for 10 minutes at 4° C. Cl activity was analyzed in 100 mM potassium phosphate buffer as previously described (Spinazzi et al., 2012). In parallel, a separate reactions containing the same quantity of reagents and sample but with the addition of 10 μl of 1 mM rotenone solution. The reactions were started by adding 6 μl of ubiquinone (10 mM), mix and follow the decrease of absorbance at 340 nm for 2 min. The dehydrogenase activity of Mrpp2 was measured as described (Falk et al., 2016) in the reverse direction for reduction of acetoacetyl-CoA (30 mM) to L-3-hydroxyacyl-CoA. The reaction was monitored as the decrease of absorbance at 340 nm.

RXRα = experiment: Chromatin immunoprecipitation (ChIP) of RXRα at the Acadm promoter PPRE; format: in vivo; conditions: ISO mouse hearts, NR
Procedure: Chromatin immunoprecipitation (ChIP). The EZ ChIP kit (EMD Millipore catalog #17-371) was used according to the manufacturer's protocol. Briefly, heart tissue was cut into small pieces using a razor blade in a petri dish on ice. The cubed tissue was incubated in fixation solution (1% formaldehye) in a conical tube and rotated at room temperature for 15 minutes to crosslink proteins and chromatin. The reaction was stopped by adding 0.125M Glycine for 5 min at room temperature. The contents were homogenized with a hand-held tissue homogenizer for 45 seconds then pelleted by centrifugation for 3 minutes at 1,250×g at 4C. The supernatant was discarded and the pellet was resuspended in 10 ml ice-cold PBS wash buffer followed by centrifugation at 1,250×g for 3 minutes. This was wash step was repeated on ice. The supernatant was discarded and the pellet resuspended in 5 ml chromatin prep buffer and incubated on ice for 10 minutes. The resuspended pellet was homogenized on ice with a dounce homogenizer for 30 strokes and then contents transferred to new conical tube on ice. The suspension was centrifuged 3 minutes at 1,250×g at 4C then supernatant discarded. The pellet was resuspended in 1 ml Chip buffer and transferred to new centrifuge tube then incubated on ice for 10 minutes. […] Purified chromatin was analyzed on a 1% agarose gel to determine the shearing efficiency. […]

Mrpp2 = Mrpp2 dehydrogenase activity in heart homogenates; format: in vivo, mouse; conditions: NR treated failing (TAC) hearts, matching sham operated controls
Procedure: as §1, with “For CIV activity, 25 mg of cardiac tissue was homogenized at 4° C. in 50 mM potassium phosphate buffer containing 1 mM EDTA, and 0.1% Triton X-100 (pH 7.4; final concentration, 5 mg tissue/mL). The samples were incubated on ice for 30 minutes followed by centrifugation at 10,000×g for 10 minutes at 4° C.” left out, “For Cl activity, 25 mg of cardiac tissue was homogenized at 4° C. in 50 mM potassium phosphate buffer containing 1 mM EDTA, and 0.1% Triton X-100 (pH 7.4; final concentration, 5 mg tissue/mL). The samples were incubated on ice for 30 minutes followed by centrifugation at 10,000×g for 10 minutes at 4° C.” left out

[2] = test system: fatty acid oxidation (acylcarnitines) in heart; experiment: Cardiac acyl-carnitine profiling (LC/MS); format: in vivo, mouse
Procedure: Cardiac acyl-carnitines. Metabolites were extracted from frozen heart tissue (10 mg) by precipitating in 80:20% methanol:water following the addition of 1 ug/ml internal standard (C16 palmitoylcarnitine, d3, Cambridge Isotope Laboratories, Inc.). After centrifugation, the supernatant was transferred to LC/MS auto sampler vials (Thermo Fisher). The protein pellet was redissolved in 0.1 M NaOH and protein concentration measured for normalization.
Acyl-carnitines were analyzed using a Triple TOF—5600 (AB Sciex) series mass spectrometer in line with a Water Acquity I-class UPLC. Chromatographic separation was achieved using an Acquity UPLC BEH HILIC, 1.7 micron, 2.1×100 mm column (Waters) with a flow rate of 0.5 ml/min. Total run time was 22 minutes. The mobile phase was composed of two solvents: A=5 mM Ammonium Acetate in 95:5 acetonitrile:water and B=5 mM Ammonium Acetate in 50:50 acetonitrile:water using the following gradient.
Samples were analyzed in positive electrospray ionization (ESI+) with a mass range from 50-1000 Da. […] Additional acyl-carnitines were identified by their m/z value as compared to theoretical values determined by the molecular formula ±0.003 D. Peak areas intensities were normalized to protein concentration.

In the case of `NC(=O)c1ccc[n+]([C@@H]2O[C@H](CO)[C@@H](O)[C@H]2O)c1` [NR, Nicotinamide riboside chloride], the “Activity of citrate synthase” value [1] is reported as “no change”, the “Activity of complex I” value [1] is reported as “restored” and the “Activity of cytochrome c oxidase (COIV)” value [1] is reported as “restored”. For the same compound, the “Binding occupancy of RXRα to the PPARα response element (PPRE) in the Acadm promoter” value (RXRα) was “increased”, the “Increase in Mrpp2 dehydrogenase activity” value (Mrpp2) was ~2 fold and the “Tissue content of lipid derived acylcarnitines and hydroxy-acylcarnitines” value ([2]; NR treated TAC hearts, to level similar to WT-Sham) was “increased”. For the same compound, the “C16 (palmitoylcarnitine) levels” value ([2]; WT and Sirt3ko NR treated TAC hearts vs vehicle) was “increased”.
